Test results: patent US11541065B2, “Compositions and methods for treating brain injury” (UNM RAINFOREST INNOVATIONS, priority 2018, dated 2023)

What was measured:
COX2 = COX2 protein level in rat neuronal cultures (immunoblot); type: cell-based; details: rat neurons, L-homocysteine 50 μM four hours, with MK801 10 μM, NVP-AAM077 30 nM, Ro 25-6981 1 μM, PD98059 15 μM, SB203580 5 μM or Bengamide B 500 nM
Procedure: (§1) Equal protein from total cell lysates obtained from rat and mice neuronal cultures were resolved in 7.5% SDS-PAGE, and subjected to immunoblotting procedure as described earlier (Poddar and Paul, 2009, J Neurochem 110:1095-1106). Blots were analyzed with antibodies as described in each experiment. All primary antibodies (anti-COX2, anti-B-tubulin) and secondary-horse radish peroxidase conjugated antibody concentrations were used according to recommendations provided by the manufacturer. Signals from immune complexes in the blots were developed using West Pico supersignal chemiluminescence reagents and then captured on X-ray films. Densitometric analysis of the images was performed using the Image J software.
Rat and mice neuronal cultures were washed with PBS (pH 7.4), containing sodium pyrophosphate and sodium vanadate as phosphatase inhibitors, and harvested in SDS sample buffer (Laemmli, 1970, Nature 227:680-685). Equal protein from total cell lysates, estimated using BCA kit, was resolved by SDS-PAGE (7.5%) followed by western blotting on PVDF membranes. Immunoblot analysis was performed by first blocking with 5% non-fat dry milk for 1 h at room temperature followed by incubation with either COX2 immunoblot analysis (Poddar and Paul, 2009, J Neurochem 110:1095-1106) as described in each experiment. All primary antibodies and horseradish peroxidase conjugated secondary antibodies were used according to manufacturer's recommendations. Signals from immune complexes in the blots were developed using West Pico supersignal chemiluminescence reagents and then captured on X-ray films. Densitometric analysis of the images was performed using the NIH Image J software.

PGE2 = PGE2 release from rat neuronal cultures (enzyme immunoassay / ELISA of culture media); type: cell-based; details: rat neurons, L-homocysteine 50 μM four hours, with DL-AP5 200 μM, MK801 10 μM, NVP-AAM077 30 nM, Ro 25-6981 1 μM, PD98059 15 μM, SB203580 5 μM, Bengamide B 500 nM or CAY10404 100 nM
Procedure: (§2) Neuron cultures were treated with or without L-homocysteine in the presence or absence of pharmacological inhibitors for the time period specified in each experiment. The medium was collected from each experimental plate and centrifuged at 1000 rpm for five minutes to remove cellular debris. Equal amounts (100 μl) of the supernatant from each sample were used to determine the amount of PGE2 using the PGE2 enzyme immunoassay kit according to the manufacturer's instructions. For measurement of cPLA2 activity, the neuronal cells from the above treated conditions were harvested in ice-cold Tris-buffered saline (pH7.4) containing sodium pyrophosphate as phosphatase inhibitor, sonicated three times with five-second bursts and two minutes on ice between intervals. The lysed cell suspensions were centrifuged at 10,000 rpm for 10 minutes and the supernatant removed. Equal amounts of protein from the supernatant (assessed using BCA protein estimation kit) were estimated for activity of cPLA2 using cPLA2 activity assay kit according to the manufacturer's protocol.
For measurement of PGE2 levels and MCP-1 levels released from neurons, culture medium was collected from each experimental plate and centrifuged at 1000 rpm for five minutes to remove cellular debris. Equal volume (100 μl) of the supernatant from each sample was used to determine PGE2 level using the PGE2 ELISA kit according to the manufacturer's instructions.

cPLA2 = cPLA2 activity in rat neuronal lysates (enzymatic assay); type: cell-based; details: rat neurons, L-homocysteine 50 μM four hours, with MK801 10 μM, NVP-AAM077 30 nM, Ro 25-6981 1 μM, PD98059 15 μM or SB203580 5 μM
Procedure: as §2
For measurement of cPLA2 activity and MCP-1 levels in cell lysates, neuronal lysates were prepared by harvesting neurons in ice-cold Tris-buffered saline (pH 7.4) containing phosphatase inhibitor, sonicated three times in five-second bursts and placed on ice (two minutes) between each burst of sonication. The lysed cell suspensions were centrifuged at 10,000 rpm (10 minutes) and the supernatant was collected in another tube. Equal amounts of protein from the supernatant were processed for cPLA2 activity assay according to the manufacturer's protocol. Equal protein from the lysates were also used to estimate MCP-1 levels using an MCP-1 ELISA kit.

[Ca^2+]i [1] = Intracellular Ca^2+ by Fura2 imaging, rat neuronal cultures; type: cell-based; details: rat neurons
Procedure: (§3) Embryos obtained from pregnant Sprague Dawley rats (16-17-day gestation) or wild type (WT) and GluN2A KO mice (15-16-day gestation) were used to establish primary cortical neuronal cultures as previously described (Poddar and Paul, 2009, J Neurochem 110:1095-1106; Poddar and Paul, 2013, J Neurochem 124:558-570; Poddar et al., 2017, J Neurochem 142:560-573). Neurons were grown on either (a) 35-mm culture dishes (MatTek Corp., Ashland, Mass.) coated overnight with poly-D-lysine (50 μg/ml) and laminin (10 μg/ml) for Ca^2+ imaging studies, (b) poly-D-lysine-coated 60 mm dishes (Corning BIOCOAT, Corning Inc., Corning, N.Y.) for biochemical studies, or (c) poly-D-lysine-coated 4-well culture slides (Corning BIOCOAT, Corning Inc., Corning, N.Y.) for cell death assay. Neurons were maintained in culture for 12-13 days before experiment. The cells were treated with freshly prepared L-homocysteine (50 μM) in Hank's balanced salt solution containing 50 μM of glycine (Lipton et al., 1997, Proceedings of the National Academy of Sciences of the United States of America 94:5923-5928; Poddar and Paul, 2009, J Neurochem 110:1095-1106; Poddar and Paul, 2013, J Neurochem 124:558-570; Poddar et al., 2017, J Neurochem 142:560-573) for the specified time periods. In a parallel series of experiments, cells were treated with glutamate (50 μM) for the specified time periods. Cells were then processed for live cell imaging, immunoblotting or cell death assay. In some experiments EGTA, DL-AP5, NVP-AAM077, Ro 25-6981 or PD98059 was added 15 minutes prior to L-homocysteine or glutamate treatment.
[Ca^2+]i in neurons was determined using the fluorescent indicator, Fura2-AM. Briefly, neurons were loaded with Fura2 (10 μM) in phenol red free Hank's balanced salt solution for 30 minutes at 37° C. followed by post-incubation for 20 minutes (Paul, S. and Connor, J. A., 2010, J Neurochem 114:1107-1118). Time lapse live cell imaging was performed following stimulation using a Nikon Ti Eclipse inverted microscope equipped with Tokai Hit stage top incubator maintained at 37° C. and infused with 95:5% air:CO2 mixture. Fields of 5-8 cells were imaged using a 40× oil immersion objective (Nikon). Fluorescence excitations (340 and 380 nm) were provided with Sutter LB-LS/30 Lambda xenon arc lamp and fluorescence emissions (510 nm) were captured using a CCD camera (Teledyne Photometries, Tucson, Ariz.). NIS Elements AR software was used for data acquisition and analysis. Ratiometric data (340/380 nm) from regions of interest were corrected for background and converted into estimates of [Ca^2+]i. as described previously (Paul, S. and Connor, J. A., 2010, J Neurochem 114:1107-1118) using the equation developed earlier (Grynkiewicz et al., 1985, J Biol Chem 260:3440-3450). Maximum and minimum fluorescence ratios were determined from Fura2 loaded cells treated with ionomycin (5 μM) in calcium containing medium (2 mM) or in calcium free media with EGTA (0.5 mM).

[2] = test system: neuron cultures from WT and GluN2A-KO mice; assay: Neuronal cell death by Hoechst DNA staining, WT and GluN2A-KO mouse neuron cultures; type: cell-based; details: PD98059 15 μM
Procedure: (§4) Neurons were subjected to staining with Hoechst 33342 dye for 15 minutes, washed extensively with PBS, and analyzed using fluorescent microscopy to assess nuclear damage. Imaging was performed with a Zeiss Axiovert 200M fluorescence microscope with attached AxioCam CCD camera using 20× objective lens (Carl Zeiss, Thomwood, N.Y.). To quantitatively assess the percentage of pyknotic nuclei a total of 1000 cells were counted for each set of experiments. Mean±SEM (n=3) were used for statistical comparison using ANOVA (Bonferroni's multiple comparison test). Differences were considered significant when p<0.05.
(§5) […] Glutamate treated cells were then maintained in their original medium for another 17 hours. For some experiments, neurons were treated with L-homocysteine or glutamate in the presence of NVP-AAM077 or PD98059. The neurons were then fixed and stained with Hoechst 33342 dye as previously described (Poddar and Paul, 2009, J Neurochem 110:1095-1106). Percentage of pyknotic nuclei was quantitatively assessed by fluorescent microscopy to determine the extent of neuronal death.

[3] = test system: rat cortical neuronal cultures; assay: Neuronal cell death by Hoechst DNA staining, rat cortical neuron cultures; type: cell-based; details: rat neurons, with NVP-AAM077 30 nM or PD98059 15 μM
Procedure: as §4, §5

[Ca^2+]i [4] = Intracellular Ca^2+ by Fura2 imaging, WT and GluN2A KO mouse neuronal cultures; type: cell-based, mice; details: neurons from both WT and GluN2A-KO mice, glutamate 50 μM
Procedure: as §3
[Ca^2+]i in neurons was determined using the fluorescent indicator, Fura2-AM. […] Fluorescence excitations (340 and 380 nm) were provided with Sutter LB-LS/30 Lambda xenon arc lamp and fluorescence emissions (510 nm) were captured using a CCD camera (Teledyne Photometries, Tucson, Ariz.). […] Maximum and minimum fluorescence ratios were determined from Fura2 loaded cells treated with ionomycin (5 μM) in calcium containing medium (2 mM) or in calcium free media with EGTA (0.5 mM).

ERK MAPK [5] = assay: ERK MAPK phosphorylation in rat cortical neuron cultures (immunoblot); type: cell-based; details: rat neurons, glutamate 50 μM, 5, 30 or 60 minutes
Description: (§6) Primary cortical neuronal cultures were established from embryos obtained from pregnant Sprague Dawley female rats (16-17 day gestation) as previously described (Podder and Paul, 2009, J Neurochem 110:1095-1106; Poddar and Paul, 2013, J Neurochem 124: 558-570). Primary cortical neuronal cultures were also developed from pregnant wildtype or GluN2A-knockout mice (15-16 day gestation) using similar protocols. The cells were maintained in culture for 12-14 days prior to treatment with homocysteine. L-homocysteine (200 mM stock) was prepared by alkali hydrolysis of L-homocysteine thiolactone hydrochloride followed by neutralization with 2N HCL and maintained in 0.02 mM N-Tris(hydroxymethyl)methyl-2-aminoethanesulfonicd acid (TES) buffer pH 7.4 (Poddar et al., 2001, Circulation 103:2717-2723). For receptor stimulation neurons were treated with freshly prepared 50 μM of L-homocysteine in Hank's balanced salt solution (Podder and Paul, 2009, J Neurochem 110:1095-1106; Poddar and Paul, 2013, J Neurochem 124: 558-570) containing 50 μM of glycine (Lipton et al., 1997, Proc Natl Acad Sci USA 94:5923-5928). In a subset of culture plates, pharmacological inhibitors (NVP-AAM007) were added […] prior to homocysteine addition and maintained during homocysteine treatment. Cells were processed for immunoblotting or Hoechst DNA staining.
as §1, with “(Podder” for “(Poddar”, “(anti-pERK, anti-ERK)” for “(anti-COX2, anti-B-tubulin)”
as §3
Rat and mice neuron cultures were harvested in SDS sample buffer (Laemmli, 1970, Nature 227:680-685). […]

ERK MAPK [6] = assay: ERK MAPK phosphorylation in WT and GluN2A-KO mouse neuron cultures (immunoblot); type: cell-based, mice; details: both WT and GluN2A-KO mice cultures, glutamate 50 μM
Description: as §6
as §1, with “(Podder” for “(Poddar”, “(anti-pERK, anti-ERK)” for “(anti-COX2, anti-B-tubulin)”
as §3, with “In some experiments EGTA, DL-AP5, NVP-AAM077, Ro 25-6981 or PD98059 was added 15 minutes prior to L-homocysteine or glutamate treatment.” left out

CCCCCCCCCCCCCC(=O)O[C@H]1CC[C@H](NC(=O)[C@H](OC)[C@H](O)[C@@H](O)[C@H](O)/C=C/C(C)C)C(=O)N(C)C1 [Bengamide B]
effect on homocysteine-induced increase in COX2 protein level (COX2): attenuates homocysteine-induced increase in COX2 protein level | effect on homocysteine-induced PGE2 release (PGE2): significant decrease in PGE2 level

CS(=O)(=O)c1ccc(-c2noc(C(F)(F)F)c2-c2ccccc2)cc1 [CAY10404]
effect on homocysteine-induced PGE2 release (PGE2): significantly reduced

C[S+]([O-])c1ccc(-c2nc(-c3ccncc3)c(-c3ccc(F)cc3)[nH]2)cc1 (stereo not drawn) [SB203580]
effect on homocysteine-mediated increase in cPLA2 activity (cPLA2): significant reduction | effect on homocysteine-induced increase in COX2 protein level (COX2): significant reduction | effect on homocysteine-induced PGE2 release (PGE2): significant reduction

O=C(O)CN(CCOCCOCCN(CC(=O)O)CC(=O)O)CC(=O)O [EGTA]
effect on homocysteine-induced increase in Fura2 fluorescence ratio and [Ca^2+]i ([Ca^2+]i [1]; somata and processes, L-homocysteine 50 μM 60 minutes, with EGTA 2 mM, DL-AP5 200 μM, NVP-AAM077 30 nM or Ro 25-6981 1 μM): are blocked

C[C@]12N[C@H](Cc3ccccc31)c1ccccc12 [MK801]
effect on homocysteine-mediated increase in cPLA2 activity (cPLA2): is blocked | effect on homocysteine-induced increase in COX2 protein level (COX2): blocks homocysteine induced COX2 protein expression | effect on homocysteine-induced PGE2 release (PGE2): significantly reduced

COc1cccc(-c2cc(=O)c3ccccc3o2)c1N [PD98059]
effect on homocysteine-mediated increase in cPLA2 activity (cPLA2): significantly attenuates homocysteine-mediated increase in cPLA2 activity | effect on homocysteine-induced increase in COX2 protein level (COX2): significantly reduced | effect on homocysteine-induced neurotoxicity ([2]; neurons from WT mice, L-Hcy 50 μM 18 hours): significantly reduced | effect on glutamate-induced neurotoxicity ([2]; neurons from either WT or GluN2A KO mice, glutamate 50 μM one hour then 17 hours): fails to reduce glutamate-induced neurotoxicity | effect on homocysteine-induced neuronal death ([3]; L-homocysteine 50 μM 18 hours): attenuates homocysteine-induced neurotoxicity | effect on glutamate induced neuronal cell death ([3]; glutamate 50 μM one hour then 17 hours in original medium): remain unaffected | effect on homocysteine-induced PGE2 release (PGE2): decreases significantly

N[C@@H](CCC(=O)O)C(=O)O [glutamate]
Fura2 fluorescence ratio and [Ca^2+]i ([Ca^2+]i [4]): rapid increase in Fura2 fluorescence ratio and [Ca^2+]i | ERK MAPK phosphorylation (ERK MAPK [5]): rapid but transient increase in ERK MAPK phosphorylation | increase in [Ca^2+]i ([Ca^2+]i [1]; glutamate 50 μM, within 2.5 minutes): approximately 21 fold | ERK MAPK phosphorylation (ERK MAPK [6]): rapid but transient increase in ERK MAPK phosphorylation
